Measurements taken from ChEMBL document CHEMBL1909046, “DrugMatrix in vitro pharmacology data”.

Tests used:
Substance-P receptor = Substance-P receptor (Homo sapiens, UniProt P25103); type: cell membranes, Membrane; conditions: cho; also: in other assays of this panel Not Active means under 50% inhibition at 10 µM
Neutrophil elastase = target: T1, Neutrophil elastase (Homo sapiens, UniProt P08246); type: tissue-based;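 also: inhibition of neutrophil elastase enzyme activity, measured with a p-nitroanilide-linked peptide substrate; in other assays of this panel Not Active means under 50% inhibition at 10 µM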
T1 sequence (P08246 whole entry): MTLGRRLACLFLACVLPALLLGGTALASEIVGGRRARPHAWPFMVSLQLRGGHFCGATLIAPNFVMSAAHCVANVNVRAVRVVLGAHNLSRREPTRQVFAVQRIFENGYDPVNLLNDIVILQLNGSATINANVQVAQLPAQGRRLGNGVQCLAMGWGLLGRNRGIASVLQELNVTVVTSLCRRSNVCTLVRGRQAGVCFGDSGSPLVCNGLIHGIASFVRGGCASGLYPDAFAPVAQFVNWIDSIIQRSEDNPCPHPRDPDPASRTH

Adenosine receptor A2a = Adenosine receptor A2a (Homo sapiens, UniProt P29274); experiment: DRUGMATRIX: Adenosine A2A radioligand binding (ligand: […]); type: cell membranes, HEK293, Membrane; conditions: hek293; Not Active = under 50% inhibition at 10 µM
Carbonic anhydrase 2 = Carbonic anhydrase 2 (Homo sapiens, UniProt P00918); experiment: DRUGMATRIX: Carbonic Anhydrase II enzyme inhibition (substrate: 4-Nitrophenyl acetate (4-NPA)); type: tissue-based, Erythrocyte; conditions: erythrocyte; Not Active = under 50% inhibition at 10 µM
[1] = target: T2, Amine oxidase [flavin-containing] A (Homo sapiens, UniProt P21397); experiment: DRUGMATRIX: Monoamine Oxidase MAO-A enzyme inhibition (substrate: Kynuramine); set-up: species or system BTI-TN-5B1-4; conditions: bti-tn-5b1-4; Not Active = under 50% inhibition at 10 µM
T2 sequence (P21397 whole entry): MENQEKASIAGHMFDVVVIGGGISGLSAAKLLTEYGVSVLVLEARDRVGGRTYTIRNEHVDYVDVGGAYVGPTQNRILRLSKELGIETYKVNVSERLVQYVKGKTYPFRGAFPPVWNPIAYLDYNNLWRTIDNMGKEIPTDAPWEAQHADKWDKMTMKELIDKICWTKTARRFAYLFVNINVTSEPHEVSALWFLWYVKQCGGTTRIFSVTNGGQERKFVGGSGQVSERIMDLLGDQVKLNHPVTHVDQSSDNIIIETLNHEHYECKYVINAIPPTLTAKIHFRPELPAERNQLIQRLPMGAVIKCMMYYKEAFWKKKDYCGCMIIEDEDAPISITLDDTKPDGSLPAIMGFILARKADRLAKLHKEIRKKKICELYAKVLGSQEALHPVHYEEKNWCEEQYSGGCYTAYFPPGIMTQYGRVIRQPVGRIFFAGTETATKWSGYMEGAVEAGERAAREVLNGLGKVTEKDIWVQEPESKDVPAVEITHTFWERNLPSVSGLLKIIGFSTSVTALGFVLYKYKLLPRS

[2] = target: T3, Alpha-1A adrenergic receptor (Rattus norvegicus, UniProt P43140); experiment: DRUGMATRIX: Alpha-1A adrenergic receptor radioligand binding (ligand: prazosin); type: cell membranes, Wistar, Submaxillary gland, Membrane; conditions: Not Active = under 50% inhibition at 10 µM
T3 sequence (P43140 whole entry): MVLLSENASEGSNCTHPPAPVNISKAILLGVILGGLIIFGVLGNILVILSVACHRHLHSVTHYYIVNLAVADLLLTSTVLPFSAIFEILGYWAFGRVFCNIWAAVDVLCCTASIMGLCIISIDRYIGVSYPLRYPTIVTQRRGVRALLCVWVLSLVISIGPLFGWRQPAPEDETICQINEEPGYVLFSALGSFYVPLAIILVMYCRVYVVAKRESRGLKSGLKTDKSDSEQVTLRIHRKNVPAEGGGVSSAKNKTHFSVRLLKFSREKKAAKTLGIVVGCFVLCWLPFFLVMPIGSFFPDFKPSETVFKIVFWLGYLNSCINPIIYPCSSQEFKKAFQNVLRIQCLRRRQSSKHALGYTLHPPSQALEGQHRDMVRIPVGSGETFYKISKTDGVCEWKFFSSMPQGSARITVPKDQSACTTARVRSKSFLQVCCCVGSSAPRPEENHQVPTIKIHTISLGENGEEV

[3] = target: T4, Muscarinic acetylcholine receptor M5 (Homo sapiens, UniProt P08912); type: cell membranes, CHO-K1, Membrane; conditions: cho-k1; also: in other assays of this panel Not Active means under 50% inhibition at 10 µM
T4 sequence (P08912 whole entry): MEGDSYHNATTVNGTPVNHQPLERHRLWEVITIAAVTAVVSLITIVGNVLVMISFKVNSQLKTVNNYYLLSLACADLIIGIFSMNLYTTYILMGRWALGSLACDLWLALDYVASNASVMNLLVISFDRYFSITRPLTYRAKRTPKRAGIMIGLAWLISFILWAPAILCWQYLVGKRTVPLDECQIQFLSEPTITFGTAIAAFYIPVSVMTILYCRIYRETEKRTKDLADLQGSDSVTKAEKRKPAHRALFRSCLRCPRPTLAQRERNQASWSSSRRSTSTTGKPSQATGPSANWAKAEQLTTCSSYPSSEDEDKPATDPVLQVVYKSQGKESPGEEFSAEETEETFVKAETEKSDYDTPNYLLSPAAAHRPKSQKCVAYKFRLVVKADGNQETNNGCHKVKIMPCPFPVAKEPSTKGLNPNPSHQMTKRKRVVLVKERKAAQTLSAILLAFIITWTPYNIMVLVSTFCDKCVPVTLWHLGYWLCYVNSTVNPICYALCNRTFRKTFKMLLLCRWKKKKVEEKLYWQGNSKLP

Cathepsin G = target: T5, Cathepsin G (Homo sapiens, UniProt P08311); type: tissue-based; conditions: neutrophil;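 also: inhibition of Cathepsin G enzyme activity, tested on an AMC-conjugated peptide substrate; in other assays of this panel Not Active means under 50% inhibition at 10 µM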
T5 sequence (P08311 whole entry): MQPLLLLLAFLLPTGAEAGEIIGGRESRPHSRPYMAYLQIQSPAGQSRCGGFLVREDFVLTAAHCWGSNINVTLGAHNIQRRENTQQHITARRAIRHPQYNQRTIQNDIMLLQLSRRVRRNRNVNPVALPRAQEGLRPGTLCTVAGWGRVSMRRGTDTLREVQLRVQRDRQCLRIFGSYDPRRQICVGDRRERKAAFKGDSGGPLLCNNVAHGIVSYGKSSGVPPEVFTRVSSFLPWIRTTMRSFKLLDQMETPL

[4] = DRUGMATRIX: Glutamate, NMDA, Agonism radioligand binding (ligand: [3H] CGP-39653); type: cell membranes, Rattus norvegicus, Wistar, Cerebral cortex, Membrane; conditions: Not Active = under 50% inhibition at 10 µM

Sequence of Adenosine receptor A2a (P29274 whole entry): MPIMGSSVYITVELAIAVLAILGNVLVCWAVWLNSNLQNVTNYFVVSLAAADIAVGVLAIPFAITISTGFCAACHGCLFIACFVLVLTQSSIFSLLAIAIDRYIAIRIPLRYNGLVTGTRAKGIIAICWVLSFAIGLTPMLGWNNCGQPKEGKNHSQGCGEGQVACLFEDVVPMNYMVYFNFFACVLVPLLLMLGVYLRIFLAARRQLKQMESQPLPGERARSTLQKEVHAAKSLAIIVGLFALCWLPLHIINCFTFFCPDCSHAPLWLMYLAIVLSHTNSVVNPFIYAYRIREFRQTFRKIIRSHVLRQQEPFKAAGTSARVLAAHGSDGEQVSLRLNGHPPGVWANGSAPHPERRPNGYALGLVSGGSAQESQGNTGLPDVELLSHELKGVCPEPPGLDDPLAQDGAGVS
Sequence of Substance-P receptor (P25103 whole entry): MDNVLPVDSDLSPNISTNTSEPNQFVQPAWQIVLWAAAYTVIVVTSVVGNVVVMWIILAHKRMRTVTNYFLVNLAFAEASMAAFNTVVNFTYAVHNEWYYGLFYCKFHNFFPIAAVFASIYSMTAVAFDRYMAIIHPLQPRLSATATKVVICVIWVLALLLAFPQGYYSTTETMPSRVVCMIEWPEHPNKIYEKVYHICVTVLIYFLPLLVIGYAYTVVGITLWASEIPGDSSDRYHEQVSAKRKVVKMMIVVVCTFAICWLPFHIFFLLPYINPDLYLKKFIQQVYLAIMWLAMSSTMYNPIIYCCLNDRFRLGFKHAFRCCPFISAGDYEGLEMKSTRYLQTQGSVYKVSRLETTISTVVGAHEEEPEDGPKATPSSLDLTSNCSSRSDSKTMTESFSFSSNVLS

COCCCOc1ccnc(C[S+]([O-])c2nc3ccccc3[nH]2)c1C (stereo not given) [RABEPRAZOLE]
Not Active: IC50 (Substance-P receptor) | IC50 (Neutrophil elastase) | IC50 (Adenosine receptor A2a) | IC50 (Carbonic anhydrase 2) | IC50 [1] | IC50 [2] | IC50 [3] | IC50 (Cathepsin G) | IC50 [4] | Ki [4]

CNC(=C[N+](=O)[O-])NCCSCc1ccc(CN(C)C)o1 [RANITIDINE]
Not Active: IC50 (Substance-P receptor) | IC50 (Neutrophil elastase) | IC50 (Adenosine receptor A2a) | IC50 (Carbonic anhydrase 2) | IC50 [1] | IC50 [2] | IC50 [3] | IC50 (Cathepsin G) | IC50 [4] | Ki [4]

CO[C@H]1/C=C/O[C@@]2(C)Oc3c(C)c(O)c4c(c3C2=O)C2=NC3(CCN(CC(C)C)CC3)NC2=C(NC(=O)/C(C)=C\C=C\[C@H](C)[C@H](O)[C@@H](C)[C@@H](O)[C@@H](C)[C@H](OC(C)=O)[C@@H]1C)C4=O [RIFABUTIN]
Not Active: IC50 (Substance-P receptor) | IC50 (Neutrophil elastase) | IC50 (Adenosine receptor A2a) | IC50 (Carbonic anhydrase 2) | IC50 [1] | IC50 [2] | IC50 [3] | IC50 (Cathepsin G) | IC50 [4] | Ki [4]

CC(C)c1nc(CN(C)C(=O)N[C@H](C(=O)N[C@@H](Cc2ccccc2)C[C@H](O)[C@H](Cc2ccccc2)NC(=O)OCc2cncs2)C(C)C)cs1 [RITONAVIR]
Not Active: IC50 (Substance-P receptor) | IC50 (Neutrophil elastase) | IC50 (Adenosine receptor A2a) | IC50 (Carbonic anhydrase 2) | IC50 [1] | IC50 [2] | IC50 [3] | IC50 (Cathepsin G) | IC50 [4] | Ki [4]

CC(C)CC(N(C)C)C1(c2ccc(Cl)cc2)CCC1 (stereo not given) [SIBUTRAMINE]
Not Active: IC50 (Substance-P receptor) | IC50 (Neutrophil elastase) | IC50 (Adenosine receptor A2a) | IC50 (Carbonic anhydrase 2) | IC50 [1] | IC50 [2] | IC50 [3] | IC50 (Cathepsin G) | IC50 [4] | Ki [4]

[H]/N=C(/N)N[C@H]1[C@H](O)[C@@H](O)[C@H](O[C@@H]2O[C@@H](C)[C@](O)(C=O)[C@H]2O[C@@H]2O[C@@H](CO)[C@H](O)[C@@H](O)[C@@H]2NC)[C@@H](N/C(N)=N\[H])[C@@H]1O [STREPTOMYCIN]
Not Active: IC50 (Substance-P receptor) | IC50 (Neutrophil elastase) | IC50 (Adenosine receptor A2a) | IC50 (Carbonic anhydrase 2) | IC50 [1] | IC50 [2] | IC50 [3] | IC50 (Cathepsin G) | IC50 [4] | Ki [4]

COc1cc(NS(=O)(=O)c2ccc(N)cc2)nc(OC)n1 [SULFADIMETHOXINE]
Not Active: IC50 (Substance-P receptor) | IC50 (Neutrophil elastase) | IC50 (Adenosine receptor A2a) | IC50 (Carbonic anhydrase 2) | IC50 [1] | IC50 [2] | IC50 [3] | IC50 (Cathepsin G) | IC50 [4] | Ki [4]

Cc1cc(C)nc(NS(=O)(=O)c2ccc(N)cc2)n1 [SULFAMETHAZINE]
Not Active: IC50 (Substance-P receptor) | IC50 (Neutrophil elastase) | IC50 (Adenosine receptor A2a) | IC50 (Carbonic anhydrase 2) | IC50 [1] | IC50 [2] | IC50 [3] | IC50 (Cathepsin G) | IC50 [4] | Ki [4]

C[C@]1(Cn2ccnn2)[C@H](C(=O)O)N2C(=O)C[C@H]2S1(=O)=O [TAZOBACTAM]
Not Active: IC50 (Substance-P receptor) | IC50 (Neutrophil elastase) | IC50 (Adenosine receptor A2a) | IC50 (Carbonic anhydrase 2) | IC50 [1] | IC50 [2] | IC50 [3] | IC50 (Cathepsin G) | IC50 [4] | Ki [4]

CN1C(C(=O)Nc2ccccn2)=C(O)c2sccc2S1(=O)=O [TENOXICAM]
Not Active: IC50 (Substance-P receptor) | IC50 (Neutrophil elastase) | IC50 (Adenosine receptor A2a) | IC50 (Carbonic anhydrase 2) | IC50 [1] | IC50 [2] | IC50 [3] | IC50 (Cathepsin G) | IC50 [4] | Ki [4]

CC(C)(C)c1ccc(C(O)CCCN2CCC(C(O)(c3ccccc3)c3ccccc3)CC2)cc1 (stereo not given) [TERFENADINE]
Not Active: IC50 (Substance-P receptor) | IC50 (Neutrophil elastase) | IC50 (Adenosine receptor A2a) | IC50 (Carbonic anhydrase 2) | IC50 [1] | IC50 [2] | IC50 [3] | IC50 (Cathepsin G) | IC50 [4] | Ki [4]

O=C1CCC(N2C(=O)c3ccccc3C2=O)C(=O)N1 (stereo not given) [THALIDOMIDE]
Not Active: IC50 (Substance-P receptor) | IC50 (Neutrophil elastase) | IC50 (Adenosine receptor A2a) | IC50 (Carbonic anhydrase 2) | IC50 [1] | IC50 [2] | IC50 [3] | IC50 (Cathepsin G) | IC50 [4] | Ki [4]
